# Measurements published in paper PMC8879959, “In Vivo Antistress Effects of Synthetic Flavonoids in Mice: Behavioral and Biochemical Approach” (Molecules, 2022).
# Like-named read-outs stand apart in the source and are kept apart here.
# Tests used:
# [1] = DPPH free radical scavenging assay; type: biochemical; conditions: concentration range 6.25–50 μg/mL, absorbance 517 nm
# Protocol: Scavenging activities for DPPH and ABTS were calculated and the IC50 was determined.
# [2] = system: acetic acid-induced stress mice; experiment: Chemical induced stress (acetic acid model, writhes); type: in vivo, Balb/C mice
# Text: The anti-stress effect of synthesized flavonoids was screened for chemical-induced stress using the acetic acid model. Animals were randomly assigned into two groups of 8. The control group received Tween 80 (2%). […] The treatments in all groups were given persistently for a period of 15 days.
# mice [3] = experiment: Swimming endurance test; type: in vivo, Balb/C mice; conditions: flavonoids 10 mg/kg, standard diazepam 2 mg/kg IP, 15 days; recorded for 30 min; mean ± SEM, n = 8
# Protocol: Animals were divided at random into two groups of 8. Tween 80 (2%) was given to the control group, while animals in each group were treated with 10 mg/kg of each flavonoid. […] All the doses were given constantly for 15 days. On 15th day, one hour after the dose administration, all the animals were allowed to swim in isolation in a glass tank. The time of immobility for each animal was recorded for a period of 30 min [26, 27].
# mice [4] = experiment: Restraint stress, organ weights; type: in vivo, Balb/C mice; conditions: restraint stress 2 h; flavonoids 10 mg/kg p.o., standard diazepam 2 mg/kg IP, 15 days; mean ± SEM
# Text: (§1) The adhesive tape was removed, and blood samples were collected. After blood collection, the animals were sacrificed, and the brain and vital organs were isolated and weighed.
# mice [5] = experiment: Biochemical parameters in blood after restraint stress; type: in vivo, Balb/C mice; conditions: flavonoids 10 mg/kg, standard diazepam 2 mg/kg, 15 days, mean ± SEM
# Text: as §1
# After restrain test, blood samples were collected for the assessment of blood glucose, triglycerides and total cholesterol levels, using available commercial kits. […]
# mice [6] = experiment: Biochemical parameters in brain after restraint stress; type: in vivo, Balb/C mice; conditions: flavonoids 10 mg/kg, standard diazepam 2 mg/kg, 15 days, mean ± SEM
# [7] = Mus musculus, ip, 360 h; read-out: Antistress Response (%)
# [8] = flavonoids 10 mg/kg, standard diazepam 2 mg/kg IP, 15 days; acetic acid i.p. 0.1 mL (6% v/v), writhes within 20 min; mean ± SEM, n = 8
Structure (SMILES),"IC50, scavenging against DPPH [1] [µg/mL]","inhibition in vivo at 10 mg/kg [2, 7] [%]","Number of Writhes [2, 8]",Immobility Time (mice [3]) [min],Weight of Adrenal Gland (mice [4]) [mg],Weight of Brain (mice [4]) [mg],Weight of Spleen (mice [4]) [mg],Glucose (blood) (mice [5]),TGs (blood triglycerides) (mice [5]),Total Ch (blood total cholesterol) (mice [5]),Catalase (brain) (mice [6]) [IU/dL],SOD (brain) (mice [6]) [IU/dL],TBARS (brain lipid peroxidation) (mice [6]) [nmol/g],"inhibition in vivo at 10 mg/kg ([2]; Mus musculus, ip, 360 h, read-out: Antistress Response (%)) [%]"
O=c1cc(-c2ccc(C(F)(F)F)cc2)oc2ccccc12 [F6],174.24 ± 2.71,64.1,17.01 ± 1.89,3.41 ± 0.23,8.09 ± 1.77,408.3 ± 2.60,171.1 ± 2.40,102.09 ± 1.62,47.26 ± 0.44,82.01 ± 0.79,17.36 ± 0.62,8.13 ± 0.51,18.96 ± 0.60,
COc1ccc(-c2oc3ccccc3c(=O)c2O)cc1 [OF3],25.54 ± 1.21,80.9,,2.33 ± 0.28,6.79 ± 1.10,413.6 ± 2.66,194.8 ± 2.11,97.06 ± 1.71,43.11 ± 0.36,76.09 ± 0.64,19.02 ± 0.77,9.58 ± 0.66,17.49 ± 0.61,
O=c1c(O)c(-c2ccc(C(F)(F)F)cc2)oc2ccccc12 [OF6],122.33 ± 1.98,,15.88 ± 2.11,3.34 ± 0.25,8.11 ± 1.31,403.9 ± 2.239,179.1 ± 2.30,100.32 ± 1.29,44.02 ± 0.30,77.02 ± 0.97,17.01 ± 0.52,8.03 ± 0.49,18.10 ± 0.51,66.5
